# Results: patent publication US20070269892A1, “FORMULATIONS FOR INTRACELLULAR DELIVERY dsRNA” (NASTECH PHARMACEUTICAL COMPANY INC., priority 2006, published 2007)
# PEG10k = poly(ethylene glycol) of 10 kD conjugated to the peptide; PEG2k = PEG 2k (PEG2k-maleimide); Mal = maleimide
# Tests used:
# [1] = Particle size analysis of siRNA/peptide polymer formulations; type: physicochemical; conditions: 24 hours after formulation, siRNA 0.8 μM/peptide polymers, N/P=2
# Procedure: Formulations for particle size analysis were prepared in Hepes 11 mM pH7.4, at a siRNA concentration of 0.8 uM (11.59 μg/ml) and then diluted into OPTI-MEM. For nanoparticle size analysis of siRNA/peptide polymers, we used 1 ug RNA/0.8 nmols peptide polymer (based on monomer). The total vol of sample was 1 ml containing 50 ug RNA and 40 nmol peptide polymer in Hepes buffer mannitol (5 mM HEPES, 5% mannitol, pH 7.5) (Filter). The particle size analysis was performed on a Zeta Plus/Zeta potential analyzer.
# Briefly, buffer was added first and then concentrated siRNA was added followed by votexing for 3 seconds (at full speed). The peptide polymer was then added followed by votexing for an additional 6 seconds (at full speed). Formulations were maintained at room temperature for 10 minutes. In a 96-well plate format, formulations were then diluted 20× for a final siRNA concentration of 10 nM (6.25 μl into 118.75 μl of OPTI-MEM) or 2× for a final concentration of 100 nM (62.5 μl of formulation into 62.5 μl OPTI-MEM). After dilution, formulations were mixed gently. For positive control preparation, 0.5 μl of HiPerFect was diluted into 12.5 μl of OPTI-MEM and 0.5 μl of siRNA into 12.5 μl of OPTI-MEM, respectively; and incubated at room temperature for 5 minutes, and then combined diluted siRNA and diluted HiPerFect, and incubated at room temperature for 15 minutes. A formulation pH of about 7.4 was chosen in order to minimize reduction of peptide that is polymerized through cycteine disulfide bonds.
# Particle size was measured 24 hours after formulation of siRNA 0.8 μM/peptide polymers (N/P=2). […] In summary, all formulation tested in this study formed particles at about or less than about 100 nm.
# 9L/LacZ cells [2] = test: Cellular uptake of peptide/siRNA condensates (fluorescence intensity); type: cell-based; conditions: study 2; NT peptides at 100 nM, N/P=2 with pluronic F127; PN0593/PN0594 at varying N/P
# Procedure: Cells are plated per well in 24-well plates the day before transfection in complete media. The siRNA is labeled, for example with Cy-5 conjugate. The peptide/siRNA condensates are added to cells previously washed with phosphate buffered saline (PBS). Cells were transfected for three hours at 37° C., 5% CO2. Cells were washed with PBS, treated with trypsin, and then analyzed by flow cytometry.
# siRNA cell-uptake was measured by the intensity of intracellular Cy5 fluorescence. The cell-uptake assay is used to determine the percentage of cells that contain the Cy5-conjugated siRNA. Mean Fluorescence Intensity (MFI) is used to determine the relative mean quantity of Cy5-conjugated siRNA that entered the cells.
# G1498 siRNA = test: SYBR-gold dye displacement assay of peptide binding to siRNA, with Scatchard analysis; conditions: for Bmax (Scatchard Analysis) / Kd (Scatchard Analysis) / Max Bound siRNA: siRNA 10 μg/mL; for Max Bound siRNA: peptide:siRNA charge ratio 0.05 to 10; for Relative affinity of binding to siRNA: comparison within Table 7
# Procedure: Peptides (see Table 4, Example 2) are suspended in Hyclone nuclease free water. Test dilutions of this peptide stock are made in sterile, Nuclease-free eppendorf tubes at a 2× final concentration and buffered to pH 7.4 with 20 mM Phosphate. Nine concentrations of each peptide were made, corresponding to charge ratios of approximately 0.05 to 10. The molar ratios and μg/mL and μM concentrations of each peptide corresponding to these charge ratios are detailed in Tables 1, 2 and 3.
# SYBR-gold nucleic acid binding dye stock, a 10,000× concentrate, is supplied by Invitrogen (Carlsbad, Calif.) and stored at −20° C. The concentrate is allowed to equilibrate to room temperature before diluting 1 to 100 in Hyclone nuclease free water. This is then diluted 1 to 10 in the experimental plate for a final concentrate of 10× for the assay. This is the optimal dilution to achieve linear binding to siRNA duplex at a concentration range of up to 50 μg/mL concentration. For higher concentrations, the amount of dye to use may be further optimized.
# Samples are mixed directly in the 384 well analysis plate. First 5 μL SYBR-gold dye is pipetted into each well with a multichannel pipette, touching the tip to the bottom of the well to draw out the solution completely. Then 22.5 μL of 2× peptide solution is added with a single channel pipette. Since SYBR-gold will not bind to peptide (and peptide samples without siRNA will verify this assumption), there will be no bleaching effect on fluorescence. Finally, 22.5 μL of 2× siRNA is added with a multichannel pipette. The plate is covered immediately with foil and tapped gently to mix and draw down any droplets on the side of the well.
# Fluorescence is measured using the SpectraMax fluorescent plate reader from Molecular Devices (Sunnyvale, Calif.). Plate settings include shaking before reading, one read per well, with excitation wavelength of 495 nm and emission wavelength of 537 nm. The plate is read within 30 minutes of the addition of the siRNA.
# Scatchard Plot is a plot of peptide binding ([peptide]bound/[peptide]free) vs. [peptide]bound. The slope of the linear regression of this plot is −1/Kd and Bmax is the […]. Since the concentration of free and bound peptide cannot be measured directly, indirect measurements of siRNA is used for the calculation. Free siRNA is determined from measured fluorescence using the standard curve. Bound siRNA is determined from the standard curve by mass balance from the known initial siRNA concentration (10 μg/mL). Bound peptide is calculated from bound siRNA by assuming the (siRNA:Peptide) bound molar ratio is equal to the (siRNA:Peptide) charge ratio for a single molecule pairing. From this calculated bound peptide amount, the free peptide is calculated by mass balance.
# The relative binding of various peptides to siRNA via a rapid screen is assessed by indirect measurement of the displacement of SYBR-gold nucleic acid binding dye. A buffered mixture of siRNA, peptide and SYBR-gold is prepared in the measurement plate in duplicate such that the peptide and SYBR-gold dye undergoes simultaneous competitive binding of the siRNA. The concentration of siRNA is fixed at 10 μg/mL and is combined with a titration of each peptide ranging in a concentration that corresponds to a peptide:siRNA charge ratio between 0.05 to 10. Since SYBR-gold dye only fluoresces when bound to siRNA, peptide binding to the siRNA is inhibits binding of the dye and consequently reduces the fluorescence. Therefore, the amount of fluorescence correlates inversely to the binding of the peptide to the siRNA.
# 9L/LacZ cells [3] = test: Micro BCA total protein assay (toxicity); type: cell-based; conditions: study 1, 100 nM, N/P=2
# Procedure: For study 1 and 2, 7,000-10,000 9L/LacZ cells (passage 5-25) were plated in cell culture media in each well of a 96-well plate and grown overnight. Cells (in 75 μl of media) were transfected by adding 25 μl of each formulation to be tested; 4 hours thereafter 100 μl of fresh media is added to each well, which media is replaced with 100 μl of fresh media approximately 16 hours later. […] Cells were harvested 3 days after transfection by the addition of 50 μl of lysis buffer for β-galactosidase and Micro BCA assays.
# For study 1 and 2, a Micro BCA assay (Pierce Chemical Company, Rockford, Ill.) was performed in order to measure total protein concentration, as follows: 9L/LacZ cells were washed 1× with phosphate buffered saline (PBS). Then, 50 μl of M-PER® Reagent was added to each well and incubated for 15 minutes at room temperature. After incubation, 10 μl of each lysate was transferred to a new well (using a 96-well plate format) containing 140 μl of dH20, and then 150 μl of Micro BCA working solution was added. The plates were covered, incubated at 37° C. for 2 hours and then the absorbance measured at 562 nm was recorded.
# Lac-Z = conditions: study 2, 100 nM, N/P=2, 0.1% pluronic F127
# Procedure: The LacZ assay was performed three days post-transfection. Cells were rinsed with phosphate buffers saline (PBS) after removal of cell media. The PBS was aspirated and the cells were lysed by the addition of 50 μl M-PER™ to each well and incubating the cells for 15 minutes while gently shaking. Following cell lysis, 10 μl of cell lysate was removed from each well to perform a total protein assay (micro BCA kit, Pierce). In order to measure LacZ activity, 30 μl of cell lysate was transferred to a new plate and 30 μl of ALL-IN-ONE™ beta-galactosidase (β-gal) was added to each well of the new plate. The new plate was covered to avoid light exposure and incubated for 30 minutes at 37° C. Following the 30 minute incubation, the absorbance was read at 405 nm with a μQuant plate reader (Bio-Trek Instrument) to measure LacZ activity.
# For study 1 and 2, 7,000-10,000 9L/LacZ cells (passage 5-25) were plated in cell culture media in each well of a 96-well plate and grown overnight. […]
# For study 1 and 2, a Micro BCA assay (Pierce Chemical Company, Rockford, Ill.) was performed in order to measure total protein concentration, as follows: 9L/LacZ cells were washed 1× with phosphate buffered saline (PBS). […] The plates were covered, incubated at 37° C. for 2 hours and then the absorbance measured at 562 nm was recorded. […]
# [4] = Glutathione (GSH) mediated siRNA release from disulfide cross-linked peptide siRNA particles; type: physicochemical; conditions: 5 ug siRNA/4 nmols peptide polymer, GSH 0.5 mg
# Procedure: In a separate experiment, glutathione (GSH) was added to disulfide cross-linked peptide siRNA particles (which may be referred to as nanoparticles) in order to detect siRNA release from disulfide cross-linked peptide siRNA condensates. The reduction of the peptide polymers, leading to dissociation and release of siRNA was monitored by continues measurement of the fluorescence intensity of […] over 15 minutes. Briefly, siRNA nanoparticles (N/P: 5 ug siRNA/4 nmols peptide polymer) were treated with reducing agent glutathione (GSH, 0.5 mg scale) and thiazole orange (0.1 ug) in 1 ml sample in HBM buffer pH 7.5. The fluorescence intensity was monitored over 15 min at Ex 498 nm and Emi 546 nm. Samples tested were (1) siRNA and Thiazole orange (No peptide polymer, No GSH), (2) Peptide polymer, siRNA and Thiazole orange (No GSH), and (3) Peptide polymer, siRNA, Thiazole orange and GSH.
Bmax (Scatchard Analysis) (G1498 siRNA) [μMbound/μMfree],Kd (Scatchard Analysis) (G1498 siRNA) [µM⁻¹],Max Bound siRNA (G1498 siRNA) [% mole %],Substance,Particle size [1],Uptake (9L/LacZ cells [2]),also measured
–,–,–,Cys-Trp-(Lys)4-His-(Lys)4-Cys (CWKKKKHKKKKC) [NT-23],about 65.7 nm,–,–
–,–,–,NH2-PLKPLKPLKPLKPLKPLK-amide (H-PLKPLKPLKPLKPLKPLK-NH2) [PN0594],–,very low,–
0.992,0.130,47,PEG10k-Mal-(Lys)15-amide ({PEG10k-Mal}-KKKKKKKKKKKKKKK-NH2) [PN0931-2],–,–,–
2.077,0.150,59,PEG2k-Mal-(Lys)25-amide [PN0925-2],–,–,–
–,–,–,Cys-Trp-His-(Lys)4-His-(Lys)4-Cys (CWHKKKKHKKKKC) [NT-24],about 82.2 nm,–,Toxicity (total protein expression) (9L/LacZ cells [3]): no apparent toxicity
–,–,–,Cys-Trp-His-(Lys)4-His-(Lys)4-His-Cys (CWHKKKKHKKKKHC) [NT-25],about 64.6 nm,–,–
–,–,–,Cys-Trp-(Lys)4-Cys (CWKKKKC) [NT-18],about 105 nm,good uptake,Toxicity (total protein expression) (9L/LacZ cells [3]): no apparent toxicity; Knockdown of gene expression (Lac-Z): about 20%
–,–,–,Cys-Trp-(Lys)10-Cys (CWKKKKKKKKKKC) [NT-21],about 55.7 nm,good uptake,Reduction of peptide polymer by GSH with siRNA release [4]: exception
0.241,0.326,39,PEG2k-Mal-(Lys)10-amide ({PEG2k-Mal}-KKKKKKKKKK-NH2) [PN0933-2],–,–,–
–,–,–,Cys-Trp-(Lys)8-Cys (CWKKKKKKKKC) [NT-20],about 67.6 nm,good uptake,–
–,–,–,Cys-Trp-(Lys)6-Cys (CWKKKKKKC) [NT-19],about 78.7 nm,good uptake,Toxicity (total protein expression) (9L/LacZ cells [3]): no apparent toxicity; Knockdown of gene expression (Lac-Z): about 27%
–,–,–,Cys-Trp-(Lys)4-Cys-(Lys)4-Cys (CWKKKKCKKKKC) [NT-22],about 90.8 nm,–,–
–,–,58,PEG10k-Mal-(Lys)30-amide [PN0907-2],–,–,–
0.495,0.929,64,"RRRRRRRRRRRRRRRRRR [PN0859-2, Ac-(Arg)18-amide]",–,–,Relative affinity of binding to siRNA (G1498 siRNA): greatest affinity
–,–,–,NH2-VRLPPPVRLPPPVRLPPP-amide (H-VRLPPPVRLPPPVRLPPP-NH2) [PN0593],–,very low,–
0.560,0.250,48,PEG2k-Mal-(Lys)15-amide ({PEG2k-Mal}-KKKKKKKKKKKKKKK-NH2) [PN0930-2],–,–,–
0.198,0.771,68,"RRRRRRRRR [PN0861-2, Ac-(Arg)9-amide]",–,–,Relative affinity of binding to siRNA (G1498 siRNA): greatest affinity

Substance,Bmax (Scatchard Analysis) (G1498 siRNA) [μMbound/μMfree],Kd (Scatchard Analysis) (G1498 siRNA) [µM⁻¹],Max Bound siRNA (G1498 siRNA) [% mole %],Particle size [1],Uptake (9L/LacZ cells [2]),also measured
"KKKKKKKKK [PN0860-2, Ac-(Lys)9-amide]",0.379,0.204,43,–,–,–
"KKKKKKKKKKKKKKKKKK [PN0858-1, Ac-(Lys)18-amide]",0.828,0.348,66,–,–,–
"KKKKKKKKKKKKKKKKKKKK [PN0924-1, NH2-(Lys)20-amide]",0.883,0.426,71,–,–,–
